Results published in patent US10669290B2, “Beta-lactamase inhibitors” (priority 2012, dated 2020).
≈ marks a conversion by molar mass, not a printed value.

System: S. aureus MSSA-7 PC-1
Assay: Broth microdilution MIC, S. aureus MSSA-7
Type: cell-based
Conditions: Staphylococcus aureus, partner antibiotic alone, S. aureus producing Class A penicillinase PC-1

Q: With `CCN1CCN(C(=O)N[C@@H](C(=O)N[C@@H]2C(=O)N3[C@@H]2SC(C)(C)[C@@H]3C(=O)O)c2ccccc2)C(=O)C1=O` [Piperacillin] as the compound, how does the MIC read?
A: 64 µg/mL (≈ 124 µM)
